In patent publication US20230210864A1, “AGENT FOR PROMOTING CORNEAL ENDOTHELIAL CELL ADHESION” (Senju Pharmaceutical Co., Ltd., priority 2007, published 2023):

Legend:
[1] = system: monkey corneal endothelial cells; experiment: Passage culture of monkey corneal endothelial cells with Y-27632, cell count by CellTiter-Glo; format: cell-based, Macaca fascicularis; conditions: Y-27632 10 μM, dilution ½, ⅙ or ⅛
Description: From the corneal tissue isolated from Macaca fascicularis euthanized, Descemet's membrane with corneal endothelial cells attached thereto was separated. The Descemet's membrane was incubated together with Dispase II (1.2 U/ml, Roche Applied Science) under the conditions of 37° C., 5% CO2 for 45 min, and the corneal endothelial cells were mechanically separated by a pipetting operation. The separated corneal endothelial cells were centrifuged and seeded on a media for corneal endothelium. The corneal endothelial cells that reached confluent were incubated with 0.05% trypsin under the conditions of 37° C., 5% CO2 for 10 min, and passage-cultured. After 4 to 6 passages, the corneal endothelial cells were placed in a 96-well plate to a dilution of ½, ⅙ or ⅛. The passage culture was continued using a medium for corneal endothelium added with Y-27632 (10 μM) for the ROCK inhibitor(+) group and a medium for corneal endothelium without addition of Y-27632 for the ROCK inhibitor(−) group. At 24 hr after the passage, the cells were counted in the same manner as in Example 5 using CellTiter-Glo (registered trade mark, Promega) (FIG. 8).

[2] = system: human corneal endothelial cells; experiment: Primary culture of human corneal endothelial cells with Y-27632, phase contrast observation; format: cell-based; conditions: Y-27632 10 μM
Description: Of human corneal tissues obtained from the US eye bank, the central part (diameter 7 mm) had been used for corneal transplantation and the remaining surrounding corneal tissue was used. The Descemet's membrane with corneal endothelial cells adhered thereto was separated. For the ROCK inhibitor(+) group, the Descemet's membrane was placed in a medium for corneal endothelium added with Y-27632 (10 μM) and incubated under the conditions of 37° C., 5% CO2 for 10 min. For the ROCK inhibitor(−) group, the membrane was placed in a medium for corneal endothelium without addition of Y-27632 and incubated for 10 min under the same conditions. As the medium for corneal endothelium, the same culture medium as in Example 1 was used. The Descemet's membrane after the incubation was incubated together with Dispase II (1.2 U/ml, Roche Applied Science) under the conditions of 37° C., 5% CO2 for 45 min, and the corneal endothelial cells were mechanically separated by a pipetting operation. The separated corneal endothelial cells were centrifuged and stirred in the media for corneal endothelium with Y-27632(+) and Y-27632(−) to the same concentration, and the cells were seeded on a 48 well plate pre-treated with an FNC coating mix (Athena ES) at a density of about 10000 cells per well. […]

[3] = system: monkey corneal endothelial cells; experiment: Cell cycle of monkey corneal endothelial cells (anti-Ki67 antibody immunostaining and flow cytometry); format: cell-based, Macaca fascicularis; conditions: Y-27632 10 μM
Description: The Macaca fascicularis corneal endothelial cells passage-cultured in the same manner as in Example 6 were subcultured on a slide glass to a dilution of ¼. A medium for corneal endothelium added with Y-27632 (10 μM) was used for the ROCK inhibitor(+) group and a medium for corneal endothelium without addition of Y-27632 was used for the ROCK inhibitor(−) group. On days 1, 2 and 14 of the passage culture, the corneal endothelial cells on the slide glass were fixed with 4% para-formaldehyde at room temperature for 10 min, and immunostained with anti-Ki67 antibody (FIG. 11). Similarly, moreover, the Macaca fascicularis corneal endothelial cells were passage-cultured to a dilution of ¼ in each of the ROCK inhibitor(+) group and ROCK inhibitor(−) group. On days 1 and 2 of the passage culture, the cells were collected using 0.05% trypsin and subjected to flow cytometry using anti-Ki67 antibody, and the cell cycle was examined (FIGS. 12 and 13).

[4] = system: monkey corneal endothelial cells; experiment: Cell morphology in passage culture of monkey corneal endothelial cells (phase contrast, phalloidin fluorescence staining); format: cell-based, Macaca fascicularis; conditions: passage culture on slide glass
Description: The Macaca fascicularis corneal endothelial cells passage-cultured in the same manner as in Example 6 were subcultured on a slide glass to a dilution of ¼. […] Furthermore, the corneal endothelial cells on the slide glass were fixed with 4% para-formaldehyde at room temperature for 10 min, and actin fiber was stained by phalloidin fluorescence staining (FIGS. 10A and 10B).

[5] = system: monkey corneal endothelial cells; experiment: Primary culture of monkey corneal endothelial cells with Y-27632, phase contrast observation; format: cell-based, Macaca fascicularis; conditions: Y-27632 10 μM
Description: From the corneal tissue isolated from Macaca fascicularis euthanized for other purpose, Descemet's membrane with corneal endothelial cells attached thereto was separated. For the ROCK inhibitor(+) group, the Descemet's membrane was placed in a medium for corneal endothelium added with Y-27632 (10 μM) and incubated under the conditions of 37° C., 5% CO2 for 10 min. For the ROCK inhibitor(−) group, the membrane was placed in a medium for corneal endothelium without addition of Y-27632 and incubated for 10 min under the same conditions. As the medium for corneal endothelium, the same cell culture medium as in Example 1 was used. The Descemet's membrane after the incubation was incubated together with Dispase II (1.2 U/ml, Roche Applied Science) under the conditions of 37° C., 5% CO2 for 45 min, and the corneal endothelial cells were mechanically separated by a pipetting operation. The separated corneal endothelial cells were centrifuged and stirred in the media for corneal endothelium with Y-27632(+) and Y-27632(−) to the same concentration, and the cells were seeded on a 12 well plate at a density of about 20000 cells per well. The plate was pre-treated with an FNC coating mix (Athena ES) for 10 min. […]

[6] = days 1 and 2 of the passage culture

CC(N)[C@H]1CC[C@H](C(=O)Nc2ccncc2)CC1 (single isomer, unassigned; (+)) [Y-27632, (+)-trans-4-(1-aminoethyl)-1-(4-pyridylcarbamoyl)cyclohexane]
number of cells that adhered onto the plate at 24 hr after the passage, compared to medium without Y-27632 [1]: significantly high | cell layer morphology and density on day 7 after the start of the culture [2]: a confluent and highly dense single cell layer consisting of cells (uniform polygonal cells) similar to normal corneal endothelial cells was formed | number of Ki67 positive cells by immunostaining, compared to ROCK inhibitor(−) group ([3]; day 14, almost confluent): less than that of the ROCK inhibitor(−) group | Ki67 positive cells by flow cytometry, compared to ROCK inhibitor(−) group [3, 6]: contained many Ki67 positive cells | Ki67 positive cells by immunostaining, compared to ROCK inhibitor(−) group [3, 6]: contained many Ki67 positive cells | actin stress fiber (phalloidin fluorescence staining) ([4]; 24 hr): actin stress fiber was clearly observed | cell adhesion and morphology at 24 hr after the passage (phase contrast) ([4]; dilution ¼): adhesion of the cells onto the slide glass increased, flattening to corneal endothelial cell-like cells was promoted, and aggregation of cells also increased | number of days before reaching confluent ([5]; 7 for ROCK inhibitor(−)): 3 days | cells adhered onto the plate as compared to ROCK inhibitor(−) ([5]; after 24 hr from the start of the culture): apparently more cells were adhered onto the plate
